# Experiments:
# [1] = tested on: NFκB; experiment: NFκB reporter assay, TNFα stimulation; type: cell-based; conditions: Homo sapiens; A549 NFκB-NanoLuciferase reporter cells, 4 ng/ml TNFα, 6 hours
# Excerpt: Compounds of the present invention have been tested for their capacity to inhibit NFκB.
# The NFκB reporter construct was made by cloning 5 NFκB responsive elements upstream of a NanoLuciferase reporter gene flanked by AAVS1 genomic sequences.
# NFκB Responsive element fused with NanoLuciferase and SV40 late Poly(A) signal was amplified from pNL3.2-NFκB-Nluc (Promega) using NFκB-NLUC-F and NFκB-NLUC-R primers and inserted by Infusion (TaKaRa) in AAVS1 SA-2A-puro-pA donor plasmid (Hockemeyer et al, Nat Biotechnol. 2009, 27, 851-7) digested by Sal1. pCRISPR AAVS1-T2 expressing a guide RNA (gRNA) to target human AAVS1 (T2 target sequence) was constructed by inserting AAVS1-T2A hybridized primers in pLentiCRISPR v2-blast (Sanjana et al, Nat Methods. 2014, 11, 783-4) digested by Bsmb1.
# A549 cells were transfected by the plasmids and puromycine selected for 5 days (1 μg mL-1). Then clones were obtained by limiting dilution and selected to maximize TNF dependent NFkB-NanoLuciferase induction.
# The reporter cells were seeded on a 96-well plate for overnight with DMEM including 10% FBS. Test compounds were added at varying concentrations. The cells then were treated with 4 ng/ml TNFα (Peprotech, ref E251) in DMEM+10% FBS. NanoGlo luciferase assay (Promega) was carried out 6 hours later. Luminescence was measured using a Spark 20M spectrofluorimeter (Tecan). Values were normalized to the luminescence measured in untreated cells.
# [2] = tested on: H1N1 (influenza A/New Caledonia/20/99); experiment: Antiviral effect on A549 cells infected with H1N1; type: cell-based, H1N1 A/New Caledonia/20/99 virus; conditions: Human A549 cells, MOI of 0.1, 48 h post-infection, MUNANA hydrolysis readout
# Method: The antiviral effect of the compounds of the invention has been tested on A549 cell lines infected with H1N1 (influenza A/New Caledonia/20/99).
# Human A549 cells (80,000 cells/well in a 96 well plate) were treated with a range of concentration of test molecules and immediately infected by H1N1 A/New Caledonia/20/99 virus (clinical isolate) at MOI of 0.1 in DMEM/1% Penicillin/streptomycin supplemented with 0.25 μg/ml TPCK trypsin (Sigma) and incubated at 37° C. in 5% CO2. 48 h post-infection, supernatants (25 μl) were collected and transferred into a 96-well black flat-bottom plate, mixed with 25 μl PBS with Ca++/Mg++(Thermo Fisher) and 50 μl of 2′-(4-Methylumbelliferyl)-α-D-N-acetylneuraminic acid sodium salt hydrate stock-solution (20 μM, MUNANA, Sigma). Plates were incubated 1 h at 37° C. and reaction is stopped by adding 100 μl of Stop Solution (glycine 0.1 M pH10.7/25% ethanol). The amount of fluorescent product released by MUNANA hydrolysis (4-MU) was measured in a Tecan spectrophotometer with excitation and emission wavelengths of 365 and 450 nm respectively.
# [3] = target: T1, CISD1 Gene Product (mitoNEET) (Homo sapiens, UniProt Q9NZ45); experiment: Stability of Fe—S cluster binding of purified NEET protein mitoNEET; type: biochemical; conditions: for Time (in minutes) to achieve 50% loss of bound cluster (Absorbance 458 nm), CISD1 Gene Product (mitoNEET) / Residual cluster bound at end of experiment (Percentage Absorbance 458 nm at time zero), CISD1 Gene Product (mitoNEET): pH 6, 37° C., 1:3 protein:compound molar ratio; for Time (in minutes) to achieve 50% loss of bound cluster (Absorbance 458 nm), CISD1 Gene Product (mitoNEET): 6 μM compound, run time 180 minutes, Vehicle Control 80; for Residual cluster bound at end of experiment (Percentage Absorbance 458 nm at time zero), CISD1 Gene Product (mitoNEET): end of 180 minutes, Vehicle Control 16%; for stabiliser or destabiliser of Fe—S cluster binding, CISD1 Gene Product (mitoNEET): time to 50% Fe—S cluster bound loss changed by more than 25% vs Control sample, at the concentrations tested
# T1 sequence (Q9NZ45 33-108 limits assumed): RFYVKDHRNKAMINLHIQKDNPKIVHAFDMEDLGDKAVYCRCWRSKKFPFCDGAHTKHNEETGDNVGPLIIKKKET
# Method: (§1) The modulator effect on the NEET proteins encoded by human CISD1, CISD2, and CISD3 genes by the compounds of the invention has been tested and is reported below. Particularly, the biochemical function of the NEET proteins is measured by the stability of Fe—S cluster binding of the purified NEET proteins.
# (§2) The Fe—S cluster binding capacity of NEET proteins is known to be coordinated by four amino-acids in a stretch of 16 (three Cysteine and one Histidine). As the lability of the Fe—S cluster of NEET proteins is sensitive to the environment, cluster stability measurements are one of the measures of interactions of NEET proteins with small molecules and compounds. NEET protein/2Fe-2S cluster stability can be assessed by monitoring the decay in absorbance of its characteristic 458-nm peak (characteristic of the oxidized 2Fe-2S cluster) over time. Each NEET protein (mitoNEET, NAF-1 and Miner 2) was tested for its Fe—S binding in the absence or presence of a compound according to the invention (see table 2 below). The rate of cluster release (time in minutes to achieve 50% loss of bound Fe—S cluster) was compared for each NEET protein in the presence of one of the compounds of the invention (in a 1:3 protein:compound molar ratio) relative to each protein alone.
# (§3) At pH 6, all the three NEET proteins (mitoNEET, NAF-1 and Miner 2) have a characteristic rate of loss of the bound Fe—S cluster that can be measured by the decrease of absorbance at wavelength 458 nm over time, using a spectrophotometer. Thus, Bis-Tris buffer (100 mM Bis-Tris pH6, 100 mM Nacl) was used at pH 6 to dilute either DMSO (Blank sample: Bis-Tris Buffer pH 6, 6 μM DMSO), DMSO and one of the three NEET proteins (Control sample: Bis-Tris Buffer pH 6, 6 μM DMSO, 2 μM purified NEET protein) or DMSO, one of the three NEET proteins and a compound of the invention (Test sample: Bis-Tris Buffer pH 6, 6 μM DMSO, […], 6 μM compound of the invention).
# (§4) A reaction mix containing DMSO diluted in the Bis-Tris Buffer with or without a compound of the invention was prepared. The purified NEET protein was the last component added to the reaction mix which was then aliquoted into 4 replicates in 96 wells plates. The absorbance at wavelength 458 nm was taken at 5 minutes intervals at 37° C. with a spectrofluorimeter. The assay run time for CISD2 gene product (NAF-1) was 500 minutes and 180 minutes for both the CISD 1 gene product (mitoNEET) and the CISD3 gene product (Miner 2).
# (§5) In addition to time monitoring, residual bound Fe—S cluster to NEET protein was measured at the final point of the spectrometry assay for each Test sample and compared to the Control sample data (in parenthesis table 2). This residual binding is measured by the differential percentage between the absorbance 458 nm at time zero and the absorbance 458 nm at the end of the experiment (i.e. respectively 500 or 180 minutes as described hereabove), showing the percentage of NEET protein still able to bind a Fe—S cluster.
# (§6) Analysis of the absorbance enables the time for which 50% loss of bound Fe—S cluster is reached (i.e. a 50% absorbance decrease at 458 nm) for each Test sample and each Control sample (in parenthesis table 2) to be determined. The data are then compared to determine whether the compound of the invention stabilizes or destabilizes the NEET protein/Fe—S cluster binding.
# [4] = target: T2, CISD3 Gene Product (Miner2) (Homo sapiens, UniProt P0C7P0); experiment: Stability of Fe—S cluster binding of purified NEET protein Miner2; type: biochemical; conditions: for Time (in minutes) to achieve 50% loss of bound cluster (Absorbance 458 nm), CISD3 Gene Product (Miner2) / Residual cluster bound at end of experiment (Percentage Absorbance 458 nm at time zero), CISD3 Gene Product (DMSO 11%): pH 6, 37° C., 1:3 protein:compound molar ratio; for Time (in minutes) to achieve 50% loss of bound cluster (Absorbance 458 nm), CISD3 Gene Product (Miner2): 6 μM compound, run time 180 minutes, Vehicle Control 60; for Residual cluster bound at end of experiment (Percentage Absorbance 458 nm at time zero), CISD3 Gene Product (DMSO 11%): end of 180 minutes, Vehicle Control 11%; for stabiliser or destabiliser of Fe—S cluster binding, CISD3 Gene Product (Miner2): time to 50% Fe—S cluster bound loss changed by more than 25% vs Control sample, at the concentrations tested
# T2 sequence (P0C7P0 15-127): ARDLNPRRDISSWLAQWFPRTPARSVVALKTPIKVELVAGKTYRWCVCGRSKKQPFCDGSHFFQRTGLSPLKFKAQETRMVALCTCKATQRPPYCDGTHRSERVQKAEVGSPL
# Method: as §1, §2, §3, §4, §5, §6
# [5] = target: T3, CISD2 Gene Product (NAF-1) (Homo sapiens, UniProt Q8N5K1); experiment: Stability of Fe—S cluster binding of purified NEET protein NAF-1; type: biochemical; conditions: for Time (in minutes) to achieve 50% loss of bound cluster (Absorbance 458 nm), CISD2 Gene Product (NAF-1) / Residual cluster bound at end of experiment (Percentage Absorbance 458 nm at time zero), CISD2 Gene Product (NAF-1): pH 6, 37° C., 1:3 protein:compound molar ratio; for Time (in minutes) to achieve 50% loss of bound cluster (Absorbance 458 nm), CISD2 Gene Product (NAF-1): 6 μM compound, run time 500 minutes, Vehicle Control 310; for Residual cluster bound at end of experiment (Percentage Absorbance 458 nm at time zero), CISD2 Gene Product (NAF-1): end of 500 minutes, Vehicle Control 3%; for stabiliser or destabiliser of Fe—S cluster binding, CISD2 Gene Product (NAF-1): time to 50% Fe—S cluster bound loss changed by more than 25% vs Control sample, at the concentrations tested
# T3 sequence (Q8N5K1 57-135 limits assumed): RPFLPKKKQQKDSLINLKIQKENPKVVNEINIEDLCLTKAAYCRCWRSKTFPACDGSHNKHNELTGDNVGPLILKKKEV
# Method: as §1, §2, §3, §4, §5, §6
# [6] = Influenza A virus, H1N1, A549, 48 h
Compound,EC50 [1],"IC50 [2, 6]","Time (in minutes) to achieve 50% loss of bound cluster (Absorbance 458 nm), CISD1 Gene Product (mitoNEET) [3]","Residual cluster bound at end of experiment (Percentage Absorbance 458 nm at time zero), CISD1 Gene Product (mitoNEET) [3]","stabiliser or destabiliser of Fe—S cluster binding, CISD1 Gene Product (mitoNEET) [3]","Time (in minutes) to achieve 50% loss of bound cluster (Absorbance 458 nm), CISD3 Gene Product (Miner2) [4]","Residual cluster bound at end of experiment (Percentage Absorbance 458 nm at time zero), CISD3 Gene Product (DMSO 11%) [4]","stabiliser or destabiliser of Fe—S cluster binding, CISD3 Gene Product (Miner2) [4]","Time (in minutes) to achieve 50% loss of bound cluster (Absorbance 458 nm), CISD2 Gene Product (NAF-1) [5]","Residual cluster bound at end of experiment (Percentage Absorbance 458 nm at time zero), CISD2 Gene Product (NAF-1) [5]",IC50 [2],"stabiliser or destabiliser of Fe—S cluster binding, CISD2 Gene Product (NAF-1) [5]"
COc1ccc(C(=O)Nc2sc3c(c2C(=O)O)CCC(C(C)(C)C)C3)cc1 (stereo not shown) [#1],160 nM,54.8 nM,,,,,,,,,,
CC(C)(C)C1CCc2c(sc(NC(=O)c3ccc(Cl)cc3)c2C(=O)O)C1 (stereo not shown) [#10],300 nM,26 nM,during 180 minutes,62%,stabilisers,during 180 minutes,56%,Stabilisers,290 min,42%,,
CC(C)(C)C1CCc2c(sc(NC(=O)c3ccccc3F)c2C(=O)O)C1 (stereo not shown) [#69],320 nM,,,,,,,,,,120 nM,
CC(C)OC1CCc2c(sc(NC(=O)c3ccccc3)c2C(=O)O)C1 (stereo not shown) [#103],,970 nM,95 min,4%,,65 min,20%,,415 min,4%,,Stabilisers
CC(C)(C)C1CCc2c(sc(NC(=O)c3ccccc3Cl)c2C(=O)O)C1 (stereo not shown) [#107],,1150 nM,105 min,35%,stabilisers,75 min,41%,Stabilisers,255 min,21%,,
O=C(Nc1sc2c(c1C(=O)O)C(c1ccccc1)CCC2)c1ccccc1 (stereo not shown) [#112],,1370 nM,100 min,29%,stabilisers,during 180 minutes,64%,Stabilisers,425 min,23%,,Stabilisers
CC(C)(C)C1CCc2c(sc(NC(=O)C3CCCCC3)c2C(=O)O)C1 (stereo not shown) [#115],,1470 nM,100 min,34%,stabilisers,65 min,28%,,240 min,15%,,

# From patent US11603368B2, “Fused thiophene derivatives and their uses” (ENYO PHARMA, priority 2018, dated 2023)
